ChEMBL document CHEMBL5046270, “A Selective and Orally Bioavailable Quinoline-6-Carbonitrile-Based Inhibitor of CDK8/19 Mediator Kinase with Tumor-Enriched Pharmacokinetics” (J Med Chem, 2022)

Assays:
[1] = biological target: Cyclin-dependent kinase 19 (Homo sapiens) (UniProt Q9BWU1); test: Inhibition of human CDK19 at 2 uM by competition binding assay relative to control; details: values are per cent of control
[2] = biological target: T1, Mitogen-activated protein kinase kinase kinase kinase 2 (Homo sapiens) (UniProt Q12851); test: Inhibition of human MAP4K2 at 2 uM by competition binding assay relative to control; details: values are per cent of control
T1 sequence (whole entry): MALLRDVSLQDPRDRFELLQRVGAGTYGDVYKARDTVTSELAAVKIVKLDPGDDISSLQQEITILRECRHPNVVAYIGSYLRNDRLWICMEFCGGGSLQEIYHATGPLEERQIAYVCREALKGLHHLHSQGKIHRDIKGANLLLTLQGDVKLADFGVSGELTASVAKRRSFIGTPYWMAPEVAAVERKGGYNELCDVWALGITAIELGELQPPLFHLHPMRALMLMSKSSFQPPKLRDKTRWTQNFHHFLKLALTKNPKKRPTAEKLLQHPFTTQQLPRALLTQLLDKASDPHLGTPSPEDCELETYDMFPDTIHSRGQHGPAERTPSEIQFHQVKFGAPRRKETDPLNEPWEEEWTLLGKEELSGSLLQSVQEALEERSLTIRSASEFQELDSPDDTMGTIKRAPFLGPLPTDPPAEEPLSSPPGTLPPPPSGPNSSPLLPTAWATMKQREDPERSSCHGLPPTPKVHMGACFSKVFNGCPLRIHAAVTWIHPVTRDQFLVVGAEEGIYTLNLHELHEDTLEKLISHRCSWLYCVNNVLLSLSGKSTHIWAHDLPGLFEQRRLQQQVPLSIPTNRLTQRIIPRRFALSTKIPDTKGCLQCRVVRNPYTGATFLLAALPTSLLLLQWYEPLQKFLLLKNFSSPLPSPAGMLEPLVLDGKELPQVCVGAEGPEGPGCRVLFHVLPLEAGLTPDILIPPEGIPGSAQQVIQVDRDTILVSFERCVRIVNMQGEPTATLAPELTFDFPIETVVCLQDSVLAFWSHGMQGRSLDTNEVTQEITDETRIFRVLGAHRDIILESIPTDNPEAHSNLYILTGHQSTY

[3] = biological target: T2, CDK8/Cyclin C (Homo sapiens) (UniProt P49336+P24863); test: Binding affinity to kinase tracer 236 binding to His tagged recombinant human CDK8/cyclinC assessed as rate constant (koff) by TR FRET based assay; type: protein-complex assay
[4] = biological target: Cyclin-C/Cyclin-dependent kinase 19 (Homo sapiens) (UniProt Q9BWU1+P24863); test: Binding affinity to recombinant human CDK19/cyclinC assessed as mean residence time by TR FRET based assay; type: protein-complex assay
[5] = biological target: T2, CDK8/Cyclin C (Homo sapiens); test: Binding affinity to kinase tracer 236 binding to His tagged recombinant human CDK8/cyclinC assessed as half life by TR FRET based assay; type: protein-complex assay
[6] = Downregulation of CDK8/19 in HEK293 cells assessed as mRNA expression level in KCTD12 gene at 1 uM for 3 hrs pretreatment and measured after 24 hr post wash-off by qt-PCR analysis; type: functional; details: Homo sapiens, time 27 hrs
[7] = Half life in tumor of BALB/c mouse xenografted with mouse CT26 cells at 2.5 mg/kg, iv by LC-MS/MS analysis; type: ADME, organism-based, Neoplasm
[8] = Half life in plasma of BALB/c mouse xenografted with mouse CT26 cells at 100 mg/kg, po by LC-MS/MS analysis; type: ADME, organism-based
[9] = Cmax in plasma of BALB/c mouse xenografted with mouse CT26 cells at 100 mg/kg, po by LC-MS/MS analysis; type: ADME, organism-based; set-up: route oral, dose 100 mg/kg
[10] = AUC(0-24h) in plasma of BALB/c mouse xenografted with mouse CT26 cells at 100 mg/kg, po by LC-MS/MS analysis; type: ADME, organism-based; set-up: time < 24 hr, route oral, dose 100 mg/kg; details: in vivo
[11] = Half life in plasma of BALB/c mouse xenografted with mouse CT26 cells at 2.5 mg/kg, iv by LC-MS/MS analysis; type: ADME, organism-based
[12] = Tmax in tumor of BALB/c mouse xenografted with mouse CT26 cells at 100 mg/kg, po by LC-MS/MS analysis; type: ADME, organism-based, Neoplasm
[13] = AUC (0-24hrs) in tumor of BALB/c mouse xenografted with mouse CT26 cells at 100 mg/kg, po by LC-MS/MS analysis; type: ADME, organism-based, Neoplasm; set-up: time < 24 hr, route oral, dose 100 mg/kg

Sequence of Cyclin-dependent kinase 19 (Homo sapiens) (Q9BWU1 whole entry): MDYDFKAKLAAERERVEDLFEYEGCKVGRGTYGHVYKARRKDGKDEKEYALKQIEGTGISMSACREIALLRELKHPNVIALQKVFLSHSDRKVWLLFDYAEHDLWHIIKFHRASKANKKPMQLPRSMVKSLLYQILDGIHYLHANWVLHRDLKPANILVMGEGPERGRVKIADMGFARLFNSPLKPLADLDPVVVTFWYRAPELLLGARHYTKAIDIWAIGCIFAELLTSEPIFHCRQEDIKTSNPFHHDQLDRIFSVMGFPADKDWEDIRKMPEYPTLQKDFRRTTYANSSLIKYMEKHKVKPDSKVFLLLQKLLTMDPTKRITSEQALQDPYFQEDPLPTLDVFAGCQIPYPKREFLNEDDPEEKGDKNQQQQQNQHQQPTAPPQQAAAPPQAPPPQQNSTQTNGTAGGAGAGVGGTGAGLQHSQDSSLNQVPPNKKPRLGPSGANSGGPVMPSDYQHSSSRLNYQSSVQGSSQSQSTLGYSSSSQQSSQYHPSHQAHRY

Structure (SMILES): CN1CCN(C(=O)c2ccc3cc(CCNc4ccnc5ccc(C#N)cc45)ccc3c2)CC1
- residual binding, % of control [1]: 13%
- residual binding, % of control [2]: 29%
- K [3]: 0.00122 s⁻¹
- MRT [4]: 4.25 min
- T1/2 [5]: 9.45 min
- inhibition at 1 µM [6]: 30%
- half-life [7]: 12.1 h
- half-life [8]: 3.53 h
- Cmax [9]: 144 ng/mL
- AUC [10]: 2182 ng·h/mL
- half-life [11]: 0.75 h
- Tmax [12]: 12 h
- AUC(0-t) at 24 h [13]: 88600 ng·h/mL
